Measured values published in US4605744A, “Imidazole derivatives” (Hoffmann-La Roche Inc., priority 1985, dated 1986).
In brackets after ≈: the same amount, converted by molar mass. Several values for one entry are separate records, joined by “and”; a condition that tells them apart may be missing. Equal values may be shown once. Read-outs that look alike come from different tables or passages of the source.

Legend:
Test in all cases: In vitro antibacterial activity (MIC)
Type in all cases: cell-based
P. aeruginosa 8780 = conditions: Pseudomonas aeruginosa, 8780
Outline: (§1)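 Overnight cultures, diluted 10^-2, were added at 1.5 μl per well to twofold drug series (128–0.008 μg/ml) in Mueller-Hinton broth.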

K. pneumoniae 503-964 = test system: K. pneumoniae 503-964
Outline: as §1

S. pyogenes 503-782 = test system: S. pyogenes 503-782
Outline: as §1

S. aureus 1059B = conditions: Staphylococcus aureus
Outline: as §1

K. pneumoniae 35 = test system: K. pneumoniae 35
Outline: as §1

E. cloacae 9570A = conditions: Enterobacter cloacae
Outline: as §1

S. marcescens S4 = test system: S. marcescens S4
Outline: as §1

P. aeruginosa 5712 = conditions: Pseudomonas aeruginosa, 5712
Outline: as §1

P. mirabilis 2 = conditions: Proteus mirabilis, 2
Outline: as §1

S. marcescens S2 = conditions: Serratia marcescens
Outline: as §1

S. aureus Giorgio = conditions: Staphylococcus aureus
Outline: as §1

S. marcescens SM = conditions: Serratia marcescens
Outline: as §1

E. cloacae 9295 = conditions: Enterobacter cloacae, 9295
Outline: as §1

E. coli 5152 = test system: E. coli 5152
Outline: as §1

E. cloacae 214 = conditions: Enterobacter cloacae, 214
Outline: as §1

S. faecalis C1 = test system: S. faecalis C1
Outline: as §1

E. aerogenes 8 = test system: E. aerogenes 8
Outline: as §1

P. aeruginosa 6148B = test system: P. aeruginosa 6148B
Outline: as §1

K. pneumoniae HE7 = conditions: Klebsiella pneumoniae
Outline: as §1

S. marcescens S5 = test system: S. marcescens S5
Outline: as §1

S. marcescens S1 = conditions: Serratia marcescens, S1
Outline: as §1

P. aeruginosa B = conditions: Pseudomonas aeruginosa, read-out: MIC
Outline: as §1

S. aureus Smith = test system: S. aureus Smith
Outline: as §1

P. aeruginosa 503-820 = test system: P. aeruginosa 503-820
Outline: as §1

P. aeruginosa Stone 130 = test system: P. aeruginosa Stone 130
Outline: as §1

S. marcescens S147 = conditions: Serratia marcescens
Outline: as §1

P. aeruginosa POW 151 = conditions: Pseudomonas aeruginosa, POW151
Outline: as §1

E. aerogenes 83 = test system: E. aerogenes 83
Outline: as §1

P. aeruginosa 5700 = test system: P. aeruginosa 5700
Outline: as §1

Compound CC1(C)S[C@@H]2[C@H](/N=C/N3CCCCCC3)C(=O)N2[C@H]1C(=O)O [Amdinocillin, amdinocillin, reference compound] has an MIC (P. aeruginosa 8780) greater than 128 µg/mL, an MIC (K. pneumoniae 503-964; Klebsiella pneumoniae, 503964, K. pneumoniae 503-964) of 0.125 µg/mL (≈ 0.384 µM) and an MIC (K. pneumoniae 503-964; Klebsiella pneumoniae, 503964, K. pneumoniae 503-964, read-out: MIC) of 0.062 µg/mL (≈ 0.191 µM). For the same compound, the MIC (S. pyogenes 503-782; Streptococcus pyogenes, 503782, S. pyogenes 503-782) was greater than 128 µg/mL, the MIC (S. pyogenes 503-782; Streptococcus pyogenes, 503782, S. pyogenes 503-782, read-out: MIC) was 1 µg/mL (≈ 3.07 µM) and the MIC (S. aureus 1059B; 1059B) was 128 µg/mL (≈ 393 µM). It also gave an MIC (S. aureus 1059B; read-out: MIC) of 64 µg/mL (≈ 197 µM), an MIC (K. pneumoniae 35; Klebsiella pneumoniae, 35, K. pneumoniae 35) of 0.125 µg/mL (≈ 0.384 µM) and an MIC (K. pneumoniae 35; Klebsiella pneumoniae, K. pneumoniae 35, read-out: MIC) of 0.062 µg/mL (≈ 0.191 µM). The MIC (E. cloacae 9570A; 9570A) was 0.125 µg/mL (≈ 0.384 µM), the MIC (E. cloacae 9570A; read-out: MIC) was 0.062 µg/mL (≈ 0.191 µM) and the MIC (S. marcescens S4; S. marcescens S4) was 0.5 µg/mL (≈ 1.54 µM). The MIC (S. marcescens S4; Serratia marcescens, S4, S. marcescens S4, read-out: MIC) was 1 µg/mL (≈ 3.07 µM), the MIC (P. aeruginosa 5712) was greater than 128 µg/mL and the MIC (P. mirabilis 2) was 0.125 µg/mL (≈ 0.384 µM). It also gave an MIC (S. marcescens S2; S2, S. marcescens S2) of 0.125 µg/mL (≈ 0.384 µM), an MIC (S. marcescens S2; S. marcescens S2, read-out: MIC) of 0.25 µg/mL (≈ 0.768 µM) and an MIC (S. aureus Giorgio) of 32 µg/mL (≈ 98.3 µM). It also gave an MIC (S. marcescens SM) of 0.125 µg/mL (≈ 0.384 µM), an MIC (S. marcescens SM; read-out: MIC) of 0.062 µg/mL (≈ 0.191 µM) and an MIC (E. cloacae 9295) of 0.125 µg/mL (≈ 0.384 µM). For the same compound, the MIC (E. coli 5152; E. coli 5152) was 16 µg/mL (≈ 49.2 µM), the MIC (E. coli 5152; Escherichia coli, 5152, E. coli 5152, read-out: MIC) was 8 µg/mL (≈ 24.6 µM) and the MIC (E. cloacae 214) was 0.125 µg/mL (≈ 0.384 µM). For the same compound, the MIC (S. faecalis C1; Enterococcus faecalis, C1, S. faecalis C1) was greater than 128 µg/mL, the MIC (S. faecalis C1; S. faecalis C1) was 128 µg/mL (≈ 393 µM) and the MIC (E. aerogenes 8; Klebsiella aerogenes, 8, E. aerogenes 8) was 128 µg/mL (≈ 393 µM). For the same compound, the MIC (E. aerogenes 8; Klebsiella aerogenes, E. aerogenes 8, read-out: MIC) was 0.25 µg/mL (≈ 0.768 µM), the MIC (P. aeruginosa 6148B) was 128 µg/mL (≈ 393 µM) and the MIC (P. aeruginosa 6148B; Pseudomonas aeruginosa, 6148B) was greater than 128 µg/mL. For the same compound, the MIC (P. aeruginosa 6148B; Pseudomonas aeruginosa, read-out: MIC) was 64 µg/mL (≈ 197 µM), the MIC (K. pneumoniae HE7; HE7, K. pneumoniae HE7) was greater than 128 µg/mL and the MIC (K. pneumoniae HE7; K. pneumoniae HE7, read-out: MIC) was 64 µg/mL (≈ 197 µM). The MIC (S. marcescens S5; S. marcescens S5) was 0.5 µg/mL (≈ 1.54 µM), the MIC (S. marcescens S5; Serratia marcescens, S5, S. marcescens S5, read-out: MIC) was 1 µg/mL (≈ 3.07 µM) and the MIC (S. marcescens S1) was 0.125 µg/mL (≈ 0.384 µM). For the same compound, the MIC (P. aeruginosa B) was 0.062 µg/mL (≈ 0.191 µM), the MIC (S. aureus Smith; S. aureus Smith) was 8 µg/mL and 16 µg/mL and the MIC (S. aureus Smith; Staphylococcus aureus) was 16 µg/mL (≈ 49.2 µM). The MIC (P. aeruginosa 503-820; P. aeruginosa 503-820) was 128 µg/mL (≈ 393 µM), the MIC (P. aeruginosa 503-820; Pseudomonas aeruginosa, 503820, P. aeruginosa 503-820) was greater than 128 µg/mL and the MIC (P. aeruginosa 503-820; Pseudomonas aeruginosa, 503820, P. aeruginosa 503-820, read-out: MIC) was 64 µg/mL (≈ 197 µM). For the same compound, the MIC (P. aeruginosa Stone 130) was 128 µg/mL (≈ 393 µM), the MIC (P. aeruginosa Stone 130; Pseudomonas aeruginosa, STONE130) was greater than 128 µg/mL and the MIC (S. marcescens S147; S147, S. marcescens S147) was 0.125 µg/mL (≈ 0.384 µM). The MIC (S. marcescens S147; S. marcescens S147, read-out: MIC) was 0.062 µg/mL (≈ 0.191 µM), the MIC (P. aeruginosa POW 151) was greater than 128 µg/mL and the MIC (E. aerogenes 83; E. aerogenes 83) was 4 µg/mL (≈ 12.3 µM). The MIC (E. aerogenes 83; Klebsiella aerogenes, 83, E. aerogenes 83, read-out: MIC) was 8 µg/mL (≈ 24.6 µM), the MIC (P. aeruginosa 5700; P. aeruginosa 5700) was greater than 128 µg/mL and the MIC (P. aeruginosa 5700; Pseudomonas aeruginosa, 5700, P. aeruginosa 5700) was 128 µg/mL (≈ 393 µM).
